US5278181A, “Soluble alkyl[5-[amino (phenyl)methyl]-1H-benzimidazol-2-yl] carbamate anthelmintics” (priority 1992, dated 1994)
Several values for one entry are separate records, joined by “and”; a condition that tells them apart may be missing. Equal entries are not always repeated.

Test system: Brugia pahangi
Assay: Antifilarial dual infection screen in jirds: adult B. pahangi burden
Type: in vivo, in Mongolian jirds
Text: Dual infections of the filarial worms Brugia pahangi and Acanthocheilonema viteae in jirds are used routinely for antifilarial screening [McCall, J. W., McTier, T. L., and Rowan, S. J., "In vivo models for evaluating potential antifilarial agents", Onchocerciasis/Filariasis (Proceedings of a Symposium sponsored by the World Health Organization), Kalamazoo, Mich., Apr. 8-10, 23-24 (1986)].
For this dual infection screen, male Mongolian jirds weighing 50-60 g are infected SC with 10 (5 male and 5 female) adult A. viteae, transplanted under sodium pentobarbital anesthesia (48 mg/kg) from donor hamsters infected SC 8 weeks earlier. Two weeks later, 20 (10 male and 10 female) adult B. pahangi, taken from donor jirds infected IP 8 weeks earlier, are transplanted into the peritoneal cavity of each jird under sodium pentobarbital anesthesia. After an additional week, when the jirds have acceptable levels of microfilaremia, they are randomly allocated to treatment groups of 3 animals each and a nontreated group of 4-6 animals. Microfilaremia is determined on days 0 (just prior to the first dose), 4 and 56 post-treatment. Unless indicated otherwise, compounds are suspended in hydroxyethylcellulose (0.5%) - Tween 80 (0.1%) and administered SC at 100 mg/kg/day for 5 consecutive days. All jirds are killed on day 56 post-treatment to determine the effects of drugs on adults of A. viteae and B. pahangi. Live worms are identified as to species, noted as to sex, and counted. The number of dead and/or encapsulated worms is also recorded. A reduction of ≥80% in microfilaremia or ≥50% in adult worm burden (either species) compared with pre-treatment microfilaremia or non-treated control worm burden, respectively, is considered to be significant. For secondary testing with this dual infection screen, groups of 7 animals each are used. For oral dosing, drugs are dissolved or suspended in hydroxyethylcellulose - Tween 80 and administered by gavage.

## COC(=O)Nc1nc2cc(C(N)c3ccc(F)cc3)ccc2[nH]1.Cl.Cl (racemic) [Example 2, Methyl (±)-[5-[Amino(4Fluorophenyl)Methyl]-1H-Benzimidazol-2-yl]Carbamate Dihy drochloride Salt]
1.56 mg/kg/day × 5 days, SC, day 56
  % Macrofilarial reduction, B. pahangi: 22%
3.13 mg/kg/day × 5 days, SC, day 56, 3.13 mg/kg/day
  % Macrofilarial reduction, B. pahangi: 84% and 88%
6.25 mg/kg/day × 5 days, SC, day 56, 6.25 mg/kg/day
  % Macrofilarial reduction, B. pahangi: 96% and 98%
12.5 mg/kg/day × 1 day, SC, day 56
  % Macrofilarial reduction, B. pahangi: 72%
12.5 mg/kg/day × 5 days, SC, day 56
  % Macrofilarial reduction, B. pahangi: 100%
25 mg/kg/day × 1 day, SC, day 56
  % Macrofilarial reduction, B. pahangi: 100%
25 mg/kg/day × 5 days, SC, day 56
  % Macrofilarial reduction, B. pahangi: 100%
75 mg/kg/day × 5 days, oral, day 56
  % Macrofilarial reduction, B. pahangi: 30%
100 mg/kg/day × 5 days, oral, day 56
  % Macrofilarial reduction, B. pahangi: 32%
